This note sets out measurements from patent US20060063784A1, “Method of using substituted pyrazolo [1,5-a] pyrimidines” (priority 2004, published 2006).

In one experiment the test system is LoVo Colon cell line. Description: Cytotoxicity assay using LoVo colon cell line, SRB. Format: cell-based. The settings on record: Homo sapiens, 96 h, read-out: Inhibition of LoVo. In a few lines: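 LoVo cells (4000/well, RPMI 1640 with 10% FBS, 37 °C, 7% CO2) seeded overnight, then exposed 4 days to serial dilutions spanning 5 pM-20 μM or 170 pg/ml-10 μg/ml. Survival by SRB staining; IC50 from curves relative to untreated controls.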

Experiment [1] deals with 80S14 (p21-deficient) cells. The experiment is described as follows: Cytotoxicity assay using isogenic cell lines: IC50 in 80S14 (p21-deficient) cells, SRB. It counts as cell-based, human. The settings on record: Homo sapiens; for pIC50: 120 h, SRB. In a few lines:
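80S14 (p21-deficient) cells seeded at 12,000 cells/well overnight, then exposed 5 days at 37 °C to serial dilutions (5 pM–50 μM or 170 pg/ml–10 μg/ml). TCA-fixed, sulforhodamine B-stained, absorbance at 560 nm; IC50 taken from cytotoxicity curves versus untreated controls.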

Setting [2] is: LoVo colon cells, 4 days incubation, SRB.
The mark [3] stands for this setting: 80S14 p21-deficient cells, 5 days incubation, read-out: IC50 for 80SI4.
Setting [4] is: Cellular activity in LoVo cell, 4 days incubation, SRB.
The mark [5] stands for this setting: 80S14 (p21-deficient) cells, 5 days, class symbols, read-out: IC50 for 80S14.

Molecules are shown by their SMILES. pIC50: −log10 of the molar value. Where two headings read alike, the source gives them in different places.

On to `O=C(Nc1cccc(-c2ccnc3c(C(=O)c4cccs4)cnn23)c1)OC1CCCC1` [Example 171, cyclopentyl 3-[3-(thien-2-ylcarbonyl)pyrazolo[1,5-a]pyrimidin-7-yl]phenylcarbamate], for which the pIC50 with LoVo Colon cell line (setting [2]) is above 7.00; in experiment [1] (setting [3]), above 6.00.

Turning to `CC(C)CC(=O)Nc1cccc(-c2ccnc3c(-c4ccc5c(c4)OCO5)cnn23)c1` [Example 481, N-{3-[3-(1,3-Benzodioxol-5-yl)pyrazolo[1,5-a]pyrimidin-7-yl]phenyl}-3-methylbutanamide], the pIC50 is 6.00 to 7.00 in the experiment with LoVo Colon cell line (setting [4]) and 5.00 to 6.00 in experiment [1] (setting [5]).

With `CC(C)CC(=O)Nc1cccc(-c2ccnc3c(-c4ccc(CO)cc4)cnn23)c1` [Example 469, N-(3-{3-[4-(Hydroxymethyl)phenyl]pyrazolo[1,5-a]pyrimidin-7-yl}phenyl)-3-methylbutanamide], the values for the pIC50 (with LoVo Colon cell line (setting [4]); in experiment [1] (setting [5])) were 4.70 to 6.00 and 4.30 to 5.00, respectively.

For the compound `CCCCNC(=O)Nc1cccc(-c2cc(C)nc3c(C(=O)c4cccs4)cnn23)c1` [Example 206, N-butyl-N′-{3-[5-methyl-3-(thien-2-ylcarbonyl)pyrazolo[1,5-a]pyrimidin-7-yl]phenyl}urea], the pIC50 is 6.00 to 7.00 with LoVo Colon cell line (setting [2]) and 5.00 to 6.00 in experiment [1] (setting [3]).

Regarding `O=C(Nc1cccc(-c2ccnc3c(C(=O)c4cccs4)cnn23)c1)NC1CCCC1` [Example 162, N-cyclopentyl-N′-{3-[3-(thien-2-ylcarbonyl)pyrazolo[1,5-a]pyrimidin-7-yl]phenyl}urea], the pIC50 in the experiment with LoVo Colon cell line (setting [2]) is above 7.00; in experiment [1] (setting [3]), above 6.00.

On to `O=C(Nc1cccc(-c2ccnc3c(C(=O)c4cccs4)cnn23)c1)OC1CCOCC1` [Example 176, tetrahydro-2H-pyran-4-yl 3-[3-(thien-2-ylcarbonyl)pyrazolo[1,5-a]pyrimidin-7-yl]phenylcarbamate], for which the pIC50 was above 7.00 in the experiment on LoVo Colon cell line (setting [2]) and above 6.00 in experiment [1] (setting [3]).

In the case of `O=C(c1cccs1)c1cnn2c(-c3cccc(NC(=O)N4CCCCC4)c3)ccnc12` [Example 155, N-{3-[3-(thien-2-ylcarbonyl)pyrazolo[1,5-a]pyrimidin-7-yl]phenyl}piperidine-1-carboxamide], the pIC50 in the experiment with LoVo Colon cell line (setting [2]) is above 7.00; in experiment [1] (setting [3]) it was above 6.00.

Take `Cc1cc(-c2cccc(NC(=O)C3CCCC3)c2)n2ncc(C(=O)c3cccs3)c2n1` [Example 204, N-{3-[5-methyl-3-(thien-2-ylcarbonyl)pyrazolo[1,5-a]pyrimidin-7-yl]phenyl}cyclopentanecarboxamide]: the figures for the pIC50 (with LoVo Colon cell line (setting [2]); in experiment [1] (setting [3])) were 6.00 to 7.00 and above 6.00, respectively.

`O=C(Nc1cccc(-c2ccnc3c(C(=O)c4cccs4)cnn23)c1)OCc1cccnc1` [Example 424, Pyridin-3-ylmethyl 3-[3-(thien-2-ylcarbonyl)pyrazolo[1,5-a]pyrimidin-7-yl]phenylcarbamate]: the pIC50 in the experiment on LoVo Colon cell line (setting [4]) was 4.70 to 6.00; in experiment [1] (setting [5]) it was above 6.00.

Take `O=C(Nc1cccc(-c2ccnc3c(C(=O)c4cccs4)cnn23)c1)c1ccccc1C(F)(F)F` [Example 96, N-{3-[3-(thien-2-ylcarbonyl)pyrazolo[1,5-a]pyrimidin-7-yl]phenyl}-2-(trifluoromethyl)benzamide]: the pIC50 was above 7.00 in the experiment on LoVo Colon cell line (setting [2]) and above 6.00 in experiment [1] (setting [3]).

In the case of `CCCNc1cccc(-c2ccnc3c(C(=O)c4cccs4)cnn23)c1` [Example 267, [7-[3-(Propylamino)phenyl]pyrazolo[1,5-a]pyrimidin-3-yl]-2-thienyl-methanone], the values for the pIC50 (in the experiment on LoVo Colon cell line (setting [4]); in experiment [1] (setting [5])) were 6.00 to 7.00 and 5.00 to 6.00, respectively.

Regarding `COc1ccc(/C=C/CNc2cccc(-c3ccnc4c(C(=O)c5cccs5)cnn34)c2)cc1` [Example 396, [7-(3-{[(2E)-3-(4-Methoxyphenyl)prop-2-enyl]amino}phenyl)pyrazolo[1,5-a]pyrimidin-3-yl](thien-2-yl)methanone], the pIC50 with LoVo Colon cell line (setting [4]) was 4.70 to 6.00; in experiment [1] (setting [5]), 4.30 to 5.00.

For `O=C(O)c1ccccc1C(=O)Nc1cccc(-c2ccnc3c(C(=O)c4cccs4)cnn23)c1` [Example 443, 2-[({3-[3-(Thien-2-ylcarbonyl)pyrazolo[1,5-a]pyrimidin-7-yl]phenyl}amino)carbonyl]benzoic acid], the pIC50 in the experiment on LoVo Colon cell line (setting [4]) is 4.70 to 6.00; in experiment [1] (setting [5]), 4.30 to 5.00.

In the case of `O=C(Nc1cccc(-c2ccnc3c(C(=O)c4cccs4)cnn23)c1)OCCCCCl` [Example 26, 4-chlorobutyl 3-[3-(thien-2-ylcarbonyl)pyrazolo[1,5-a]pyrimidin-7-yl]phenylcarbamate], the pIC50 with LoVo Colon cell line (setting [2]) was above 7.00; in experiment [1] (setting [3]), above 6.00.

With `CCCCNc1cccc(-c2ccnc3c(C(=O)c4cccs4)cnn23)c1` [Example 380, {7-[3-(Butylamino)phenyl]pyrazolo[1,5-a]pyrimidin-3-yl}(thien-2-yl)methanone], the pIC50 with LoVo Colon cell line (setting [4]) is above 7.00; in experiment [1] (setting [5]), above 6.00.

On to `Cc1ccccc1C(=O)Nc1cccc(-c2ccnc3c(C(=O)c4cccs4)cnn23)c1` [Example 94, 2-methyl-N-{3-[3-(thien-2-ylcarbonyl)pyrazolo[1,5-a]pyrimidin-7-yl]phenyl}benzamide], for which the pIC50 in the experiment on LoVo Colon cell line (setting [2]) was above 7.00; in experiment [1] (setting [3]), above 6.00.

Regarding `CC12CCC(C(=O)Nc3cccc(-c4ccnc5c(C(=O)c6cccs6)cnn45)c3)(OC1=O)C2(C)C` (stereo not shown) [Example 54, 4,7,7-trimethyl-3-oxo-N-{3-[3-(thien-2-ylcarbonyl)pyrazolo[1,5-a]pyrimidin-7-yl]phenyl}-2-oxabicyclo[2.2.1]heptane-1-carboxamide], the pIC50 with LoVo Colon cell line (setting [2]) is above 7.00; in experiment [1] (setting [3]), above 6.00.

The term IC50 denotes the point on the concentration scale where inhibition reaches its midpoint. Regarding `CC(C)CC(=O)Nc1cccc(-c2ccnc3c(C(=O)c4ccsc4)cnn23)c1` [Example 297, 3-Methyl-N-{3-[3-(3-thienylcarbonyl)pyrazolo[1,5-a]pyrimidin-7-yl]phenyl}butanamide], the pIC50 in the experiment with LoVo Colon cell line (LoVo) was above 7.00. In experiment [1] (80S14, 120 h, read-out: IC50 for 80S14 (uM)), the IC50 is below 1 µM.

With `CCC(C)NC(=O)Nc1cccc(-c2ccnc3c(C(=O)c4cccs4)cnn23)c1` (stereo not shown) [Example 158, N-(sec-butyl)-N′-{3-[3-(thien-2-ylcarbonyl)pyrazolo[1,5-a]pyrimidin-7-yl]phenyl}urea], the figures for the pIC50 (in the experiment with LoVo Colon cell line (setting [2]); in experiment [1] (setting [3])) were above 7.00 and above 6.00, respectively.

Regarding `O=C(Nc1cccc(-c2ccnc3c(C(=O)c4cccs4)cnn23)c1)c1cnccn1` [Example 385, N-{3-[3-(Thien-2-ylcarbonyl)pyrazolo[1,5-a]pyrimidin-7-yl]phenyl}pyrazine-2-carboxamide], the results for the pIC50 (with LoVo Colon cell line (setting [4]); in experiment [1] (setting [5])) were above 7.00 and above 6.00, respectively.

Turning to `Cc1cc(-c2cccc(NC(=O)c3ccccc3)c2)n2ncc(C(=O)c3cccs3)c2n1` [Example 202, N-{3-[5-methyl-3-(thien-2-ylcarbonyl)pyrazolo[1,5-a]pyrimidin-7-yl]phenyl}benzamide], the results for the pIC50 (with LoVo Colon cell line (setting [2]); in experiment [1] (setting [3])) were 6.00 to 7.00 and 4.30 to 5.00, respectively.

Consider `O=C(c1cccs1)c1cnn2c(-c3cccc(-c4ccn(CCN5CCCC5)n4)c3)ccnc12` [Example 520, (7-{3-[1-(2-Pyrrolidin-1-ylethyl)-1H-pyrazol-3-yl]phenyl}pyrazolo[1,5-a]pyrimidin-3-yl)(thien-2-yl)methanone], for which the pIC50 in the experiment on LoVo Colon cell line (setting [4]) was 6.00 to 7.00; in experiment [1] (setting [5]), 5.00 to 6.00.

`O=C(Nc1cccc(-c2ccnc3c(C(=O)c4cccs4)cnn23)c1)c1ccco1` [Example 285, N-{3-[3-(2-Thienylcarbonyl)pyrazolo[1,5-a]pyrimidin-7-yl]phenyl}-2-furamide]: the pIC50 in the experiment with LoVo Colon cell line (setting [4]) was above 7.00; in experiment [1] (setting [5]) it was above 6.00.

With `O=C(c1cccs1)c1cnn2c(-c3cccc(NC(=O)N4CCCC4)c3)ccnc12` [Example 170, N-{3-[3-(thien-2-ylcarbonyl)pyrazolo[1,5-a]pyrimidin-7-yl]phenyl}pyrrolidine-1-carboxamide], the pIC50 was 6.00 to 7.00 in the experiment with LoVo Colon cell line (setting [2]) and 5.00 to 6.00 in experiment [1] (setting [3]).

In the case of `O=C(CCCCl)Nc1cccc(-c2ccnc3c(C(=O)c4cccs4)cnn23)c1` [Example 346, 4-Chloro-N-{3-[3-(thien-2-ylcarbonyl)pyrazolo[1,5-a]pyrimidin-7-yl]phenyl}butanamide], the pIC50 with LoVo Colon cell line (setting [4]) is 6.00 to 7.00; in experiment [1] (setting [5]), 5.00 to 6.00.

Turning to `O=C(NCCc1ccccc1)Nc1cccc(-c2ccnc3c(C(=O)c4cccs4)cnn23)c1` [Example 2, N-(2-phenylethyl)-N′-{3-[3-(thien-2-ylcarbonyl)pyrazolo[1,5-a]pyrimidin-7-yl]phenyl}urea], the pIC50 in the experiment on LoVo Colon cell line (setting [2]) was 6.00 to 7.00; in experiment [1] (setting [3]), 5.00 to 6.00.

`C=CCCOC(=O)Nc1cccc(-c2cc(C)nc3c(C(=O)c4cccs4)cnn23)c1` [Example 199, but-3-enyl 3-[5-methyl-3-(thien-2-ylcarbonyl)pyrazolo[1,5-a]pyrimidin-7-yl]phenylcarbamate]: the figures for the pIC50 (in the experiment with LoVo Colon cell line (setting [2]); in experiment [1] (setting [3])) were above 7.00 and above 6.00, respectively.

On to `CCOC(=S)Nc1cccc(-c2ccnc3c(C(=O)c4cccs4)cnn23)c1` [Example 332, O-Ethyl 3-[3-(thien-2-ylcarbonyl)pyrazolo[1,5-a]pyrimidin-7-yl]phenylthiocarbamate], for which the pIC50 is above 7.00 in the experiment with LoVo Colon cell line (setting [4]) and above 6.00 in experiment [1] (setting [5]).

In the case of `O=C(Cc1cccnc1)Nc1cccc(-c2ccnc3c(C(=O)c4cccs4)cnn23)c1` [Example 439, 2-Pyridin-3-yl-N-{3-[3-(thien-2-ylcarbonyl)pyrazolo[1,5-a]pyrimidin-7-yl]phenyl}acetamide], the results for the pIC50 (in the experiment on LoVo Colon cell line (setting [4]); in experiment [1] (setting [5])) were above 7.00 and 5.00 to 6.00, respectively.
